The source of these data is publication PMC4830356 (ACS chemical neuroscience, 2015).

Some results are limits rather than exact numbers.

The target of experiment [1] is T1, human KOR (Homo sapiens, UniProt P41145). Briefly: [35S]GTPγS coupling. In kind it is biochemical.
Experiment [2] concerns the target T1, human KOR. Briefly: βarrestin2 recruitment, high content imaging in U2OS-hKOR-βarr2-GFP cells. In kind it is cell-based. In general terms: Recruitment of arrestin is a read-out of receptor activation apart from second messengers.
In experiment [3] the target is T1, human KOR. Briefly: In-cell western ERK1/2 phosphorylation in CHO-hKOR cells. The format is cell-based.
Experiment [4] deals with human KOR. Briefly: Bias analysis by fitting to the operational model. As to conditions: relative to U69,593; for ΔΔLogR(G−ERK): G protein coupling vs ERK1/2 phosphorylation; for ΔΔLogR(G−ERK) / ΔΔLogR(G−βarr2): ± SEM; for ΔΔLogR(G−βarr2): G protein coupling vs βarrestin2 recruitment; for bias factor (10^ΔΔLogR) G/ERK: antilog of ΔΔLogR(G−ERK); for bias factor (10^ΔΔLogR) G/βarr2: antilog of ΔΔLogR(G−βarr2).

T1 sequence (P41145 whole entry): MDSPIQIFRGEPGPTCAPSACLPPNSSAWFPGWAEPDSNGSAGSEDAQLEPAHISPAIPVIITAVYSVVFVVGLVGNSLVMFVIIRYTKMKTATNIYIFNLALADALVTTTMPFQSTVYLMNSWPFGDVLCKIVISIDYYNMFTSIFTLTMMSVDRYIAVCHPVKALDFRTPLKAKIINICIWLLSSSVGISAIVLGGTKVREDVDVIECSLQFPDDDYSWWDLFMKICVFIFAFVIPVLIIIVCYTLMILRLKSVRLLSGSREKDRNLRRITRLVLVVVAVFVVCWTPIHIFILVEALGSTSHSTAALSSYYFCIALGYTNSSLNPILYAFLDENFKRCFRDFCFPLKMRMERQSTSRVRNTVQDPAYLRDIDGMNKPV

The EC50 is the concentration that produces a half-maximal response. Higher therefore signals weaker potency. Regarding `FC(F)(F)c1ccc(Cl)c(CSc2nnc(-c3ccccn3)n2Cc2ccco2)c1` [1.1, 2-(5-((2-Chloro-5-(trifluoromethyl)benzyl)thio)-4-(furan-2-yl-methyl)-4H-1,2,4-triazol-3-yl)pyridine], on human KOR [1], the response was half-maximal at 0.0318 ± 0.0064 µM (EC50) and the “G protein assay EMAX, % of max U69,593” value was 98 ± 1 % of max U69,593. Besides, at human KOR [2], the 50% effective concentration (EC50) came to 8.72 ± 2.18 µM; the “βarrestin2 assay % U69,593 at 10 μM” value was 29 ± 5 % U69,593; the “βarrestin2 assay EMAX, % of max U69,593” value is on record as 56 ± 5 % of max U69,593. At human KOR [3], it took 0.242 ± 0.0469 µM to reach a half-maximal effect (EC50); the “ERK1/2 phosphorylation % U69,593 at 10 μM” value is 114 ± 7 % U69,593; the “ERK1/2 phosphorylation EMAX, % of max U69,593” value (from here on “ERK1/2 phosphorylation EMAX, %”) is on record as 120 ± 10 % of max U69,593. In the experiment with human KOR [4], the “ΔΔLogR(G−ERK)” value is 2.0 ± 0.19, the “ΔΔLogR(G−βarr2)” value is 1.7 ± 0.19, the “bias factor (10^ΔΔLogR) G/ERK” value turned out to be 93 and the “bias factor (10^ΔΔLogR) G/βarr2” value worked out at 47.
`Brc1ccc(CSc2nnc(-c3ccccn3)n2Cc2cccnc2)cc1` [3.3, 2-(5-((4-Bromobenzyl)thio)-4-(pyridin-3-ylmethyl)-4H-1,2,4-triazol-3-yl)pyridine]: at human KOR [1], the response was half-maximal at 0.149 ± 0.0115 µM (EC50) and the “G protein assay EMAX, % of max U69,593” value was 94 ± 4 % of max U69,593. Further, at human KOR [2], the EC50 was above 31 µM and the “βarrestin2 assay % U69,593 at 10 μM” value is 10 ± 7 % U69,593. Further, at human KOR [3], the EC50 was 0.227 ± 0.0401 µM; the “ERK1/2 phosphorylation % U69,593 at 10 μM” value was 112 ± 6 % U69,593; the “ERK1/2 phosphorylation EMAX, %” value is recorded as 117 ± 7 % of max U69,593. Moreover, in the experiment with human KOR [4], the “ΔΔLogR(G−ERK)” value was 1.1 ± 0.19, the “ΔΔLogR(G−βarr2)” value was 1.6 ± 0.22, the “bias factor (10^ΔΔLogR) G/ERK” value was 14 and the “bias factor (10^ΔΔLogR) G/βarr2” value stood at 37.
Consider `Ic1ccc(CSc2nnc(-c3ccccn3)n2Cc2cccnc2)cc1` [2.3, 2-(5-((4-Iodobenzyl)thio)-4-(pyridin-3-ylmethyl)-4H-1,2,4-tri-azol-3-yl)pyridine], for which the “G protein assay EMAX, % of max U69,593” value on human KOR [1] is given as 98 ± 3 % of max U69,593. On human KOR [2], the “βarrestin2 assay % U69,593 at 10 μM” value is on record as 46 ± 3 % U69,593 and the “βarrestin2 assay EMAX, % of max U69,593” value is given as 101 ± 7 % of max U69,593. Besides, at human KOR [3], the “ERK1/2 phosphorylation % U69,593 at 10 μM” value is 110 ± 8 % U69,593 and the “ERK1/2 phosphorylation EMAX, %” value is reported as 109 ± 6 % of max U69,593. For the same molecule, in the experiment with human KOR [4], the “ΔΔLogR(G−ERK)” value was determined as 1.2 ± 0.22, the “ΔΔLogR(G−βarr2)” value stood at 1.4 ± 0.22, the “bias factor (10^ΔΔLogR) G/ERK” value was found to be 16 and the “bias factor (10^ΔΔLogR) G/βarr2” value is 25.
For `Brc1ccc(CSc2nnc(-c3ccccn3)n2Cc2ccco2)cc1` [3.1, 2-(5-((4-Bromobenzyl)thio)-4-(furan-2-ylmethyl)-4H-1,2,4-tri-azol-3-yl)pyridine], on human KOR [1], the EC50 was found to be 0.0847 ± 0.0184 µM and the “G protein assay EMAX, % of max U69,593” value is on record as 91 ± 3 % of max U69,593. Also, at human KOR [2], the concentration for a half-maximal effect (EC50) was above 31 µM and the “βarrestin2 assay % U69,593 at 10 μM” value is 58 ± 8 % U69,593. At human KOR [3], the concentration for a half-maximal effect (EC50) is 0.34 ± 0.0251 µM; the “ERK1/2 phosphorylation % U69,593 at 10 μM” value is listed as 114 ± 4 % U69,593; the “ERK1/2 phosphorylation EMAX, %” value is 125 ± 2 % of max U69,593. In the experiment with human KOR [4], the “ΔΔLogR(G−ERK)” value came out at 1.7 ± 0.20, the “ΔΔLogR(G−βarr2)” value is 1.2 ± 0.20, the “bias factor (10^ΔΔLogR) G/ERK” value is on record as 47 and the “bias factor (10^ΔΔLogR) G/βarr2” value stood at 17.
On to `FC(F)(F)c1ccc(Cl)c(CSc2nnc(-c3ccccn3)n2Cc2cccnc2)c1` [1.3, 2-(5-((2-Chloro-5-(trifluoromethyl)benzyl)thio)-4-(pyridin-3-ylmethyl)-4H-1,2,4-triazol-3-yl)pyridine], for which, on human KOR [1], the EC50 was determined as 0.115 ± 0.0089 µM and the “G protein assay EMAX, % of max U69,593” value was 97 ± 1 % of max U69,593. In addition, on human KOR [2], the midpoint of the response, the EC50, lay at 10.1 ± 3.25 µM; the “βarrestin2 assay % U69,593 at 10 μM” value is listed as 38 ± 5 % U69,593; the “βarrestin2 assay EMAX, % of max U69,593” value was 65 ± 6 % of max U69,593. For the same molecule, at human KOR [3], the midpoint of the response, the EC50, lay at 0.108 ± 0.0245 µM; the “ERK1/2 phosphorylation % U69,593 at 10 μM” value is 107 ± 7 % U69,593; the “ERK1/2 phosphorylation EMAX, %” value is given as 114 ± 8 % of max U69,593. Besides, in the experiment with human KOR [4], the “ΔΔLogR(G−ERK)” value was determined as 1.0 ± 0.19, the “ΔΔLogR(G−βarr2)” value was 1.2 ± 0.20, the “bias factor (10^ΔΔLogR) G/ERK” value stood at 9 and the “bias factor (10^ΔΔLogR) G/βarr2” value is reported as 15.
For `Brc1ccc(CSc2nnc(-c3ccccn3)n2Cc2cccs2)cc1` [3.2, 2-(5-((4-Bromobenzyl)thio)-4-(thiophen-2-ylmethyl)-4H-1,2,4-triazol-3-yl)pyridine], at human KOR [1], a half-maximal response (EC50) required 0.0666 ± 0.0151 µM and the “G protein assay EMAX, % of max U69,593” value is recorded as 98 ± 1 % of max U69,593. At human KOR [2], the EC50 is 1.94 ± 0.0909 µM; the “βarrestin2 assay % U69,593 at 10 μM” value is 87 ± 3 % U69,593; the “βarrestin2 assay EMAX, % of max U69,593” value is reported as 94 ± 2 % of max U69,593. At human KOR [3], the EC50 is 0.672 ± 0.113 µM; the “ERK1/2 phosphorylation % U69,593 at 10 μM” value is listed as 135 ± 8 % U69,593; the “ERK1/2 phosphorylation EMAX, %” value is 149 ± 13 % of max U69,593. In the experiment on human KOR [4], the “ΔΔLogR(G−ERK)” value is listed as 1.7 ± 0.22, the “ΔΔLogR(G−βarr2)” value is given as 0.9 ± 0.22, the “bias factor (10^ΔΔLogR) G/ERK” value was 46 and the “bias factor (10^ΔΔLogR) G/βarr2” value came to 7.
Consider `Ic1ccc(CSc2nnc(-c3ccccn3)n2Cc2cccs2)cc1` [2.2, 2-(5-((4-Iodobenzyl)thio)-4-(thiophen-2-ylmethyl)-4H-1,2,4-triazol-3-yl)pyridine], for which, at human KOR [1], the EC50 stood at 0.0403 ± 0.0085 µM and the “G protein assay EMAX, % of max U69,593” value was 100 ± 1 % of max U69,593. Moreover, on human KOR [2], the EC50 came to 3.57 ± 0.68 µM; the “βarrestin2 assay % U69,593 at 10 μM” value is listed as 94 ± 9 % U69,593; the “βarrestin2 assay EMAX, % of max U69,593” value is 123 ± 19 % of max U69,593. Further, on human KOR [3], the EC50 stood at 0.789 ± 0.159 µM; the “ERK1/2 phosphorylation % U69,593 at 10 μM” value was 131 ± 4 % U69,593; the “ERK1/2 phosphorylation EMAX, %” value is 143 ± 4 % of max U69,593. In addition, in the experiment on human KOR [4], the “ΔΔLogR(G−ERK)” value came out at 2.5 ± 0.19, the “ΔΔLogR(G−βarr2)” value is given as 1.5 ± 0.19, the “bias factor (10^ΔΔLogR) G/ERK” value worked out at 304 and the “bias factor (10^ΔΔLogR) G/βarr2” value is given as 33.
For `Ic1ccc(CSc2nnc(-c3ccccn3)n2Cc2ccco2)cc1` [2.1, 2-(5-((4-Iodobenzyl)thio)-4-(furan-2-ylmethyl)-4H-1,2,4-triazol-3-yl)pyridine], on human KOR [1], it took 0.0303 ± 0.0045 µM to reach a half-maximal effect (EC50) and the “G protein assay EMAX, % of max U69,593” value was 95 ± 1 % of max U69,593. On human KOR [2], a half-maximal response (EC50) required 13.5 ± 8.29 µM; the “βarrestin2 assay % U69,593 at 10 μM” value was 105 ± 2 % U69,593; the “βarrestin2 assay EMAX, % of max U69,593” value is 228 ± 96 % of max U69,593. Besides, at human KOR [3], the EC50 was found to be 0.222 ± 0.0229 µM; the “ERK1/2 phosphorylation % U69,593 at 10 μM” value is on record as 113 ± 8 % U69,593; the “ERK1/2 phosphorylation EMAX, %” value is 131 ± 10 % of max U69,593. In addition, in the experiment on human KOR [4], the “ΔΔLogR(G−ERK)” value is 1.9 ± 0.19, the “ΔΔLogR(G−βarr2)” value was 1.7 ± 0.19, the “bias factor (10^ΔΔLogR) G/ERK” value is recorded as 88 and the “bias factor (10^ΔΔLogR) G/βarr2” value was 49.
With `FC(F)(F)c1ccc(Cl)c(CSc2nnc(-c3ccccn3)n2Cc2cccs2)c1` [1.2, 2-(5-((2-Chloro-5-(trifluoromethyl)benzyl)thio)-4-(thiophen-2-ylmethyl)-4H-1,2,4-triazol-3-yl)pyridine], at human KOR [1], it took 0.0272 ± 0.0035 µM to reach a half-maximal effect (EC50) and the “G protein assay EMAX, % of max U69,593” value is 98 ± 1 % of max U69,593. For the same molecule, at human KOR [2], the EC50 was 6.25 ± 1.44 µM; the “βarrestin2 assay % U69,593 at 10 μM” value was 94 ± 8 % U69,593; the “βarrestin2 assay EMAX, % of max U69,593” value was 147 ± 25 % of max U69,593. For the same molecule, on human KOR [3], a half-maximal response (EC50) required 0.594 ± 0.115 µM; the “ERK1/2 phosphorylation % U69,593 at 10 μM” value is on record as 128 ± 6 % U69,593; the “ERK1/2 phosphorylation EMAX, %” value is 139 ± 9 % of max U69,593. Moreover, in the experiment with human KOR [4], the “ΔΔLogR(G−ERK)” value stood at 2.6 ± 0.19, the “bias factor (10^ΔΔLogR) G/ERK” value came to 419 and the “bias factor (10^ΔΔLogR) G/βarr2” value turned out to be 122.
